Earlier results in US20110201657A1, “AMIDE SUBSTITUTED INDAZOLE AND BENZOTRIAZOLE DERIVATIVES AS POLY(ADP-RIBOSE)POLYMERASE (PARP) INHIBITORS” (Istituto di Ricerche di Biologia Molecolare P. Angeletti SpA, priority 2006, published 2011).

System: infarct size in the heart
Conditions: rabbits

Compound	reduction in infarct size (single injection 1 mg/kg)	reduction in infarct size in the heart (single injection 10 mg/kg, one minute before occlusion or before reperfusion)
Oc1cccc2c(O)nccc12 [1,5-dihydroxyisoquinoline]	38-48%	
NC(=O)c1cccc(N)c1 [3-amino-benzamide]		32-42%
